In patent US11872221B2, “Treating untreated or treatment-resistant diabetes with glucokinase activator” (HUA Medicine (Shanghai) Ltd., priority 2020, dated 2024):
Where two headings read alike, the source gives them in different places.

How the values were obtained:
Format in all cases: in vivo, human
C-peptide = assay: Oral glucose tolerance test, C-peptide response (serum); conditions: for C-peptide CEmax, Mean (SD): baseline corrected, OGTT 75 g glucose 30 min after dose, T2DM subjects, sitagliptin 100 mg QD, dorzagliatin 75 mg BID; for C-peptide AUEC0-4h, GMR (%) / C-peptide CEav, GMR (%) / C-peptide CEmax, GMR (%): printed in the monotherapy column, apparently combination vs that monotherapy
Excerpt: (§1) This phase I study accessed the pharmacokinetic interaction between dorzagliatin and sitagliptin in T2DM subjects. This study also evaluated the safety and tolerability of dorzagliatin with simultaneous administration of sitagliptin in T2DM subjects. Moreover, this study accessed the pharmacodynamic responses of glucose, GLP-1, glucagon, insulin, and C-peptide following dorzagliatin, sitagliptin, or simultaneous administration of dorzagliatin and sitagliptin in T2DM subjects.
(§2) Study drugs are each taken 60 (±5) min prior to meals.
(§3) Subjects consumed a 75-gram glucose solution 30 min following study drug dose administration on Days 5, 10 and 15 in lieu of breakfast. Pharmacodynamic (PD) responses were evaluated by measuring GLP-1 and glucagon levels in plasma, and glucose, insulin, and C-peptide in serum within 60 min prior to oral glucose intake and 0.5, 1, 1.5, 2, 2.5, 3 and 4 h after oral glucose intake.

[1] = Phase 1 drug-drug interaction study, plasma pharmacokinetics of dorzagliatin and sitagliptin; conditions: for AUC(0-t) / Cmax: human, plasma, oral, T2DM subjects
Excerpt: as §1, §2
Blood samples for the determination of dorzagliatin and sitagliptin concentrations and corresponding pharmacokinetic (PK) analysis were collected on Days 5, 10 and 15: pre-dose (within 30 min prior to dosing), and 0.25, 0.5, 1, 1.5, 2, 3, 4, 6, 8, 10, 12, 18, and 24 h post dose.
Dorzagliatin was provided as a film-coated tablets in 75 mg strength for oral administration 60 min prior to a meal. Sitagliptin was provided as JANUVIA® 100 mg tablets for oral administration 60 min prior to a meal. The total duration of participation in the study for each subject was about 59 days (up to 28-day screening period, 12-day run-in period, and 19-day in-clinic period).
The plasma concentration-time data for dorzagliatin and sitagliptin were analyzed using noncompartmental methods to calculate pharmacokinetic parameters.

glucose = assay: Oral glucose tolerance test, glucose response (serum); conditions: for Glucose AUEC0-4h, Mean (SD) / Glucose CEav, Mean (SD) / Glucose CEmax, Mean (SD): baseline corrected, OGTT 75 g glucose 30 min after dose, T2DM subjects, sitagliptin 100 mg QD, dorzagliatin 75 mg BID; for Glucose AUEC0-4h, GMR (%) / Glucose CEav, GMR (%) / Glucose CEmax, GMR (%): printed in the monotherapy column, apparently combination vs that monotherapy
Excerpt: as §1, §2, §3

insulin = assay: Oral glucose tolerance test, insulin response (serum); conditions: printed in the monotherapy column; apparently combination vs that monotherapy
Excerpt: as §1, §2, §3

Structure (SMILES)	C-peptide CEmax, Mean (SD) (C-peptide) [ng/mL]	C-peptide AUEC0-4h, GMR (%) (C-peptide)	C-peptide CEav, GMR (%) (C-peptide)	C-peptide CEmax, GMR (%) (C-peptide)	Glucose AUEC0-4h, Mean (SD) (glucose)	Glucose CEav, Mean (SD) (glucose)	Glucose CEmax, Mean (SD) (glucose)	Glucose AUEC0-4h, GMR (%) (glucose)	Glucose CEav, GMR (%) (glucose)	Glucose CEmax, GMR (%) (glucose)	Insulin AUEC0-4h, GMR (%) (insulin)	Insulin CEav, GMR (%) (insulin)	Insulin CEmax, GMR (%) (insulin)	also measured
CC(C)C[C@@H](C(=O)Nc1ccn(C[C@@H](O)CO)n1)N1CC(Oc2ccccc2Cl)=CC1=O [Dorzagliatin, (S)-2-(4-(2-chlorophenoxy)-2-oxo-2,5-dihydro-1H-pyrrol-1-yl)-N-(1-((R)-2,3-dihydroxypropyl)-1H-pyrazol-3-yl)-4-methylpentanamide]	4.2	143	143	145	339 (124) h · mg/dL	84.8 (31) mg/dL	163 (39) mg/dL	69	69	83	159	159	146	Percent ratio of geometric means (GMR) of dorzagliatin Cmax ([1]; dorzagliatin in combination with sitagliptin vs dorzagliatin alone, 90% CI: 87, 120): 102%; Percent GMR of dorzagliatin AUC0-24h ([1]; dorzagliatin in combination with sitagliptin vs dorzagliatin alone, 90% CI: 96, 105): 100%; AUC(0-t) ([1]; dorzagliatin 75 mg BID alone (Day 15), read-out: Least squares geometric mean AUC0-24h of plasma dorzagliatin): 6570 ng·h/mL; Cmax ([1]; dorzagliatin 75 mg BID alone (Day 15), read-out: Least squares geometric mean Cmax of plasma dorzagliatin): 814 ng/mL; AUC(0-t) ([1]; dorzagliatin 75 mg BID in combination with sitagliptin 100 mg QD (Day 10), read-out: Least squares geometric mean AUC0-24h of plasma dorzagliatin): 6590 ng·h/mL; Cmax ([1]; dorzagliatin 75 mg BID in combination with sitagliptin 100 mg QD (Day 10), read-out: Least squares geometric mean Cmax of plasma dorzagliatin): 833 ng/mL
N[C@@H](CC(=O)N1CCn2c(nnc2C(F)(F)F)C1)Cc1cc(F)c(F)cc1F [Sitagliptin, (R)-3-amino-1-(3-(trifluoromethyl)-5,6-dihydro-[1,2,4]triazolo[4,3-a]pyrazin-7(8H)-yl)-4-(2,4,5-trifluorophenyl)butan-1-one]	5.1	119	119	125	378 (88) h · mg/dL	94.5 (22) mg/dL	165 (35) mg/dL	65	65	87	110	110	125	AUC(0-t) ([1]; sitagliptin 100 mg QD alone (Day 5), read-out: Least squares geometric mean AUC0-24h of plasma sitagliptin): 2940 ng·h/mL; Cmax ([1]; sitagliptin 100 mg QD alone (Day 5), read-out: Least squares geometric mean Cmax of plasma sitagliptin): 410 ng/mL; AUC(0-t) ([1]; sitagliptin 100 mg QD in combination with dorzagliatin 75 mg BID (Day 10), read-out: Least squares geometric mean AUC0-24h of plasma sitagliptin): 2720 ng·h/mL; Cmax ([1]; sitagliptin 100 mg QD in combination with dorzagliatin 75 mg BID (Day 10), read-out: Least squares geometric mean Cmax of plasma sitagliptin): 403 ng/mL; Percent GMR of sitagliptin Cmax ([1]; sitagliptin in combination with dorzagliatin vs sitagliptin alone, 90% CI: 84, 115): 98%; Percent GMR of sitagliptin AUC0-24h ([1]; sitagliptin in combination with dorzagliatin vs sitagliptin alone, 90% CI: 86, 100): 93%
